Experiments:
[1] = test system: primary AML samples; assay: Clonogenic (methylcellulose colony forming) assay, primary AML; format: cell-based, human; settings: ivermectin 6 μM; in 3/6 primary AML samples
Experimental: To assess clonogenic growth, primary AML cells or granulocyte colony-stimulating factor (G-CSF) mobilized PBSCs (4×10^5/mL) were treated with IVM or buffer control for 24 hours. After treatment, cells were washed and 10^5 cell/mL were plated in duplicate in MethoCult GF H4434 medium (StemCell Technologies, Vancouver, BC) containing 1% methycellulose in IMDM, 30% FCS, 1% bovine serum albumin, 3 U/mL of recombinant human erythropoietin, 10^−4 M of 2-mercaptoethanol, 2 mM of L-glutamine, 50 ng/mL of recombinant human stem cell factor, 10 ng/mL of GM-CSF, and 10 ng/mL of rh IL-3. Alternatively, primary cells were plated directly into MethoCult GF H4434 medium with ivermectin. Seven days (AML samples) or 14 days (normal PBCS) after plating, the number of colonies containing 10 or more cells for AML or over 100 cells for normal samples was counted as previously described.^14
Ivermectin was also evaluated in clonogenic assays in primary normal hematopoietic and AML cells. Ivermectin (6 μM) had minimal effects on the clonogenic growth of normal hematopoetic cells (n=3) with <15% reduction in clonogenic growth. In contrast, ivermectin reduced clonogenic growth by ≧40% in 3/6 primary AML samples (FIG. 1D). Similar effects were noted when primary cells were directly plated into clonogenic assays with ivermectin (FIG. 1G).

[2] = test system: acute myeloid leukemia (AML) patient samples; assay: Cell viability by Annexin V and PI staining, AML patient samples; format: cell-based, human; settings: 48 hours
Experimental: Primary human acute myeloid leukemia (AML) samples were isolated from fresh bone marrow and peripheral blood samples of consenting patients. Similarly, primary normal hematopoietic cells were obtained from healthy consenting volunteers donating peripheral blood mononuclear cells
(PBSCs) for stem cell transplantation. The mononuclear cells were isolated from the samples by Ficoll density centrifugation. Primary cells were cultured at 37° C. in IMDM supplemented with 20% FCS and appropriate antibiotics.
(§1) Cell growth and viability was assessed by the MTS assay (Promega, Madison, Wis.) according to the manufacturer's instructions and as previously described.^12 Cell death was measured by Annexin V-fluoroscein isothiocyanate (FITC) and Propidium Iodide (PI; Biovision Research Products, Mountain View, Calif.) staining and flow cytometry according to the manufacturer's instructions and as previously described.^13 To identify CD34+ cells, a normal PBSC sample was co-stained with PE-anti-CD34+ (Beckman Coulter, Marseille France), and APC-anti-CD45 (Becton Dickenson, San Jose Calif.).
Given the cytotoxicity of IVM toward leukemia cell lines, its cytotoxicity was compared to primary normal hematopoietic cells and acute myeloid leukemia (AML) patient samples (n=4 intermediate risk cytogenetics, n=1 good risk cytogenetics, and n=1 unknown cytogenetics). […]

[3] = test system: STAT1 expression in DU145 and PPC-1 cells; assay: Gene expression by Q-RT-PCR, DU145 and PPC-1; format: cell-based, human
Experimental: (§2) Gene expression changes were evaluated in OCI AML2, 0937, HL60, DU145 and PPC-1 cells by real-time Q-RT-PCRas described previously^15, 47. The expression level of STAT1A, STAT1B, TRIM22, OAS1 and IFIT3 before and after incubation of leukemia cells with ivermectin was evaluated.

[4] = test system: OCI-AML2 cells; assay: Cytosolic calcium, Indo-1 AM staining; format: cell-based, human
Experimental: Changes in cytosolic calcium concentration were detected with the fluorescent dye, Indo-1 AM (final concentration 6 μM) as previously described. ^17
Plasma membrane hyperpolarization can lead to calcium influx^23. Therefore, the effects of IVM on calcium influx in leukemia cells was tested. OCI-AML2 cells were treated with IVM and the concentration of intracellular calcium was measured by staining cells with the ratiometric dye, Indo-1 AM.

[5] = test system: panel of 5 leukemia cell lines; assay: Cell growth and viability by MTS assay in a panel of leukemia cell lines; format: cell-based; settings: 72 hours, read-out: EC50, decreased viability
Experimental: as §1
Having identified IVM in the chemical screens, the effects of IVM on cell growth and viability was tested in a panel of leukemia, cell lines. The effects of ivermectin on cell growth and viability in a panel of 5 leukemia cell lines were tested. Cells were treated with increasing concentrations of ivermectin and 72 hours after incubation, cell growth and viability were assessed by the MTS assay. Ivermectin decreased the viability of the tested leukemia cell lines with an EC50 of approximately 5 μM (FIG. 1B). The loss of viability was detected at 24 hours after treatment and increased in a time dependent manner. Cell death and apoptosis were confirmed by Annexin V and PI staining (FIG. 1C). […] (FIG. 1F).

[6] = test system: DU145 and PPC-1 cells as well as primary normal hematopoietic cells; assay: Plasma membrane potential, DiBAC4(3) staining, resistant cells; format: cell-based, human; settings: up to 6 μM for up to 24 hours
Experimental: Plasma membrane potential was measured as previously described.^18 Briefly, cells treated with IVM or buffer control in RPM1, chloride replete medium (140 mM sodium chloride, 5 mM potassium chloride, 1 mM magnesium sulfate, 1.8 mM calcium acetate, 10 mM glucose, 10 mM HEPES and 0.1% (wt/v) BSA), or chloride free media where equimolar gluconate salts of sodium and potassium replaced the sodium chloride in the chloride replete medium. After incubation, cells were stained with DiBAC4(3) (final concentration 30 nM) and fluorescence determined by flow cytometry (BD FACS Canto, Becton Dickinson, San Jose, Calif.) (excitation=488 nm, emission=516 nm) Analysis was conducted using FACSDiva Software (BD Biosciences). Calibration curves were prepared using phosphate buffers with varying potassium ion concentrations as previously described.^18
In nematodes, increases in intracellular chloride after IVM treatment cause membrane hyperpolarization. Therefore, the effects of IVM on plasma and mitochondrial membrane polarization was evaluated in leukemia cells. […] At increasing times after incubation, plasma membrane potential was measured by staining cells with DiBAC4(3) and flow cytometric analysis.

[7] = test system: dogs; settings: oral; cited from earlier work
[8] = test system: mice; settings: oral; cited from earlier work
[9] = test system: STAT1 mRNA in U937 and HL60 leukemia cells; assay: Gene expression by Q-RT-PCR, U937 and HL60; format: cell-based, human
Experimental: as §2

ivermectin
reduction in clonogenic growth [1]: ≥ 40% | cytotoxicity [2]: cytotoxic to AML patient samples at low micromolar concentrations | STAT1 expression [3]: did not show changes in STAT1 expression | intracellular calcium [4]: increased intracellular calcium | EC50 [5]: ~5 µM | plasma membrane potential [6]: did not show changes in their plasma membrane potential | LD50 [7]: ~80 mg/kg | LD50 [8]: 28 to 30 mg/kg | STAT1 mRNA [9]: demonstrated increased STAT1 mRNA
